Source: patent publication US20240041842A1, “PHARMACEUTICAL COMPOSITION FOR INHIBITING CANCER METASTASIS” (INDUSTRY-ACADEMIC COOPERATION FOUNDATION, YONSEI UNIVERSITY, priority 2021, published 2024)

Experiments:
Snail [1] = assay: Western blot of Snail protein; format: cell-based, human; conditions: for Snail: BMS303141 24 hours, NDI-091143 24 hours, SB-204990 2 hours; for Snail expression: H2O2 or NAC for 6 hours; for Snail expression levels: BAPTA or calmidazolium for 1 hour
Experimental: (§1) Cells were harvested, washed with PBS, and lysed on ice with RIPA buffer containing protease and phophatase inhibitor cocktail (GenDEPOT). After 15 minutes of incubation, the cell lysates were centrifuged at 15,000 rpm at 4° C. for 10 minutes. Protein concentration was measured by Bradford assay (Bio-rad, 500-0006). Equal amounts of total protein were placed on an SDS gel electrophoresis and transferred to a PVDF membrane (Bio-rad). The membrane was blocked with 5% skim milk for 1 hour at room temperature and incubated overnight at 4° C. with primary antibody in a buffer containing 0.1% Tween-20. Subsequently, the membrane was washed three times with Tween-PBS buffer and incubated for 1 hour at room temperature using a secondary antibody diluted in blocking buffer containing 0.1% Tween-20. Subsequently, the membrane was washed three times for 10 minutes each using Tween-TBS. Densitometry of Western blots was measured using ImageJ software.
[…] For autophagy activation, cells were'treated with 2 μM rapamycin (Selleckchem, S1039) for 5 hours. Modulation of intracellular ROS was performed with N-acetyl-cysteine (10 mM) (Sigma, A7250), hydrogen peroxide solution (100 μM to 200 μM) (Sigma, 216763), or CDDO-ME NRF2 activator (50 nM, 100 nM) (Sellckchem, S8078) for 4 to 24 hours. Intercellular calcium signal control was performed for 1 hour using BAPTA-AM (20 μM) (Sigma, A1076) or Calmidazolium Chloride (2.5 μM) (Sigma, C3930). […] For TFEB protein phosphorylation, tacrolimus (1 μM) (Selleckchem, S5003) was treated for 1 hour. […] During siRNA treatment, each siRNA was treated to a concentration of 40 to 50 nM and treated together with Lipofectamine RNAiMax (Thermo Fisher Scientific, 13778150) for transformation, and were used for experiments 48 to 72 hours later. For cDNA treatment, each cDNA was treated to a concentration of 1 to 2 μg in a 6-well plate and treated with Lipofectamine 2000 (Thermo Fisher Scientific, 11668019) for transformation, and were used for experiments 24 hours later.

HBEC-KL cell line = assay: Matrigel invasion assay, HBEC-KL cell line; format: cell-based, human; conditions: HBEC-KL; 50 uM BMS303141 24 hours, 1 um NDI-091143 24 hours, 20 uM SB-204990 2 hours
Experimental: For the 2D invasion assay, the inserts were pre-coated with 300 μg/ml Matrigel (Coming, 354234). After staining with […] dye (Bio-Rad, 1450013), 1×10^5 live cells per 8-um-pore cell-culture insert (Costar. 3422) were seeded in 0.5% ACL medium. 10% ACL medium was added to the outside of the insert. In the case of lung cancer and pancreatic cancer cell lines, after inoculation in 1% RPMI medium, 20% RPMI medium was added to the outside of the insert. Plates were incubated for 24 hours at 37° C. After incubation, the insert was fixed with 3.7% PFA, washed, stained with 0.4% crystal violet, and the upper membrane was washed and dried.

TFEB = assay: Western blot / immunoprecipitation-immunoblot of TFEB (acetylated, phosphorylated, total); format: cell-based, human; conditions: HBEC-KL; 1 uM FK506, 1 hour
Experimental: FIG. 11J illustrates a diagram of immunoblot results of the […] a control (left), and the immunoprecipitation-immunoblot result of TFEB acetylated HBEC-KL cells under the same conditions (right) is also shown,
as §1
(§2) For immunoprecipitation, equal amounts of lysate and Co-IP buffer (40 mM HEPES, pH 7.4, 120 mM NaCl, 2 mM EDTA, 0.3% CHAPS (Sigma, 10810118001), 10 mM pyrophosphate (Sigma, 221368), 10 mM glycerophosphate (Sigma, G9422), 50 mM NaF, phosphatase and protease inhibitor mixture) were mixed. Cell lysates (1 μg protein) were incubated overnight at 4° C. on anti-FLAG® M2 Affinity Gel (Sigma, A2220) or anti-acetyl-lysine antibody coated agarose (ImmuneChem Pharmaceuticals, ICP0388). The immunoprecipitate was then washed three times in IP buffer, and the immunoprecipitated complex was dissolved and separated by boiling in IP buffer for 5 minutes.

TFEB (CLEAR network) = assay: CLEAR motif-driven luciferase reporter assay; format: cell-based, human; conditions: HBEC-KL; 1 uM FK506, 1 hour
Experimental: To compare the TFEB reporter activity with other cell lines (HBEC30KT, HBEC-K, and HBEC-KL), the pGL4.70 5× CLEAR Rluc and pSt4.14 Fluc vectors were transiently co-transfected and normalized luciferase activity was measured in Dual-Measured by Luciferase® Reporter Assay System (Promega, E1910),

phospho-AMPK T172 = assay: Western blot of phospho-AMPK T172; format: cell-based, human; conditions: HBEC-KL cell line; for AMPK phosphorylation at T172: H2O2 or NAC for 6 hours; for AMPK phosphorylation: BAPTA or calmidazolium for 1 hour
Experimental: as §1
For inhibition of autophagy, cells were treated with 50 μM chloroquine (Sigma, C6628) for 12 to 24 hours. For autophagy activation, cells were'treated with 2 μM rapamycin (Selleckchem, S1039) for 5 hours. Modulation of intracellular ROS was performed with N-acetyl-cysteine (10 mM) (Sigma, A7250), hydrogen peroxide solution (100 μM to 200 μM) (Sigma, 216763), or CDDO-ME NRF2 activator (50 nM, 100 nM) (Sellckchem, S8078) for 4 to 24 hours. Intercellular calcium signal control was performed for 1 hour using BAPTA-AM (20 μM) (Sigma, A1076) or Calmidazolium Chloride (2.5 μM) (Sigma, C3930). C646 (25 μM) (Sigma, SML0002), curcumin (10 μM) (Selleckchem, S1848) CBP/p300 inhibitor or vorinostat ([…]) (Selleckchem, S1047) HDAC inhibitor was treated for 24 hours to modulate snail protein acetylation. and CHIR99021 GSK3b inhibitor (3 μM) (Sigma, SML1046) was treated for 24 hours to control Snail protein phosphorylation. For TFEB protein phosphorylation, tacrolimus (1 μM) (Selleckchem, S5003) was treated for 1 hour. […] During siRNA treatment, each siRNA was treated to a concentration of 40 to 50 nM and treated together with Lipofectamine RNAiMax (Thermo Fisher Scientific, 13778150) for transformation, and were used for experiments 48 to 72 hours later. For cDNA treatment, each cDNA was treated to a concentration of 1 to 2 μg in a 6-well plate and treated with Lipofectamine 2000 (Thermo Fisher Scientific, 11668019) for transformation, and were used for experiments 24 hours later.

LC3 = assay: Autophagic flux (LC3 Western blot, mRFP-GFP-LC3 lysosomal delivery assay); format: cell-based, human; conditions: HBEC-KL cell line; NAC or 50 uM STO-609, 24 hours
Experimental: as §1, with “Representative GFP-LC3, RFP-LC3 and overlapping images are shown. In addition, red puncta (mRFP+/GFP−) and yellow puncta (mRFP+/GFP+) per cell were quantified and graphed (n=15 cells/treatment). Cells” for “Cells”

Snail [2] = assay: Immunoprecipitation-immunoblot of phosphorylated/acetylated or K48 polyubiquitinated Snail in A549 cells; format: cell-based, human; conditions: 25 uM C646 or 3 uM SAHA
Experimental: FIG. 9K illustrates the immunoprecipitation-immunoblot result of phosphorylated/acetylated or K48 polyubiquitinated Snail assay after transfection of wild-type Snail (pFLAG-Snail WT) or acetylation-defective Snail mutant (pFLAG-SnailK146R) into A549 cells and/or treatment with 25 uM C646.
FIG. 9L illustrates the immunoprecipitation-immunoblot results of the polyubiquitinated Snail assay after transfection of HA-ubiquitin and wild-type Snail (pFLAG-Snail WT) or acetylation-defective Snail mutant (pFLAG-SnailK146R) into A549 cells and/or treatment with 25 uM C646 for 2 hours (left) and/or treatment of 3 uM SAHA for 5 hours (right).
as §2

A549-luc cells = assay: A549-luc tail vein injection metastasis model; format: in vivo; conditions: nude mice; 100 mg/kg, qd p.o 20 consecutive days
Experimental: FIG. 13E illustrates role of STO-609 on cancer metastasis in an A549-luc tail vein injection model. After intravenous injection of A549-luc cells into nude mice, vehicle or STO-609 (25 mg/kg and 100 mg/kg qd) was injected for 28 days starting one day after the injection. A picture taken of a bioluminescent image when 4 weeks have elapsed after injection is shown (above). Analysis results of the total metastasis burden by photonic flux are shown (below). FIG. 13H illustrates the role of BMS303141 on cancer metastasis in an A549-luc tail vein injection model. A549-luc cells were intravenously injected into nude mice, and then vehicle or BMS303141 (100 mg/kg q.d.) was injected for 20 days starting one day after the injection. A bioluminescence image when 3 weeks have elapsed after injection is shown. 7- to 9-week-old BALB/c-nu Sic mice were obtained from SLC, Inc. (Shizuoka, Japan) and used, A549-luc cells (#JCRB1414) or SNAI1 shRNA-mediated knockdown A549-luc cells were injected at 3-4.5×10^6 cells through the tail vein of mice. After 3 to 4 weeks, metastasis was monitored by bioluminescence imaging analysis. More specifically, after injecting D-luciferin (75 mg/kg) (PerkinElmer, 122799) into the abdominal cavity of the mouse, images were obtained using an IVIS imaging system (IVIS 200, PerkinElmer, Waltham, MA, USA) in the supine position. Lung tissue was obtained for histopathological analysis. Images were analyzed using commercially available software (ImageScope; Aperio Technologies). In the STO-609 efficacy test, STO-609 (25 mg, 100 mg/kg/day) was orally administered to mice on the day of injection. In the BMS303141 efficacy test, BMS303141 (100 mg/kg/day) was orally administered to mice on the day of injection.

[3] = HBEC-KL cell line, 20 nM bortezomib

With `O=C(O)C[C@@]1(O)C[C@@H](CCCCCCc2ccc(Cl)cc2Cl)OC1=O` [SB-204990] the Snail (Snail [1]; HBEC-KL) was “reduced” and the Matrigel invasion (HBEC-KL cell line) was “reduced”.
`C=CC[C@@H]1/C=C(\C)C[C@H](C)C[C@H](OC)[C@H]2O[C@@](O)(C(=O)C(=O)N3CCCC[C@H]3C(=O)O[C@H](/C(C)=C/[C@@H]3CC[C@@H](O)[C@H](OC)C3)[C@H](C)[C@@H](O)CC1=O)[C@H](C)C[C@@H]2OC` [FK506, tacrolimus] was tested, and the phospho-TFEB (TFEB) was “increasing” and the CLEAR activity (TFEB (CLEAR network)) was “decreased”.
`COC(=O)[C@]12CCC(C)(C)C[C@H]1[C@H]1C(=O)C=C3[C@@]4(C)C=C(C#N)C(=O)C(C)(C)[C@@H]4CC[C@@]3(C)[C@]1(C)CC2` [CDDO-ME] was tested, and the “level of phospho-AMPK T172” value (phospho-AMPK T172; CDDO-ME for 24 hours) was “reduced”.
With `COC(=O)c1cc(Cl)c(O)c(S(=O)(=O)Nc2cc(-c3ccccc3)c(F)cc2F)c1` [NDI-091143] the Snail (Snail [1]; HBEC-KL) was “reduced” and the Matrigel invasion (HBEC-KL cell line) was “reduced”.
`CC(C)C[C@H](NC(=O)[C@H](Cc1ccccc1)NC(=O)c1cnccn1)B(O)O` [bortezomib] was tested, and the “reduction of Snail by STO-609, with bortezomib also treated” value (Snail [1]; [3]) was “restored”, the “reduction of Snail by chloroquine (CQ), with bortezomib also treated” value (Snail [1]; [3]) was “restored” and the “Snail reduction caused by the ACLY inhibitor, with Bortezomib” value (Snail [1]; HBEC-KL, 20 nM bortezomib for 3 hours) was “restored”.
In the case of `CC(=O)N[C@@H](CS)C(=O)O` [NAC, N-acetyl-cysteine], the Snail expression (Snail [1]; HBEC-KL cell line) is reported as “decreased”, the “AMPK phosphorylation at T172” value (phospho-AMPK T172) is reported as “decreased” and the autophagic flux (LC3) is reported as “decreased”.
For `Clc1ccc(C(c2ccc(Cl)cc2)n2cc[n+](CC(OCc3ccc(Cl)cc3Cl)c3ccc(Cl)cc3Cl)c2)cc1` (stereo not shown) [calmidazolium], the Snail expression levels (Snail [1]; HBEC-KL cell line) was “reduced” and the AMPK phosphorylation (phospho-AMPK T172) was “reduced”.
For `OO` [H2O2, hydrogen peroxide], the Snail expression (Snail [1]; HBEC-KL cell line) was “increased” and the “AMPK phosphorylation at T172” value (phospho-AMPK T172) was “increased”.
In the case of `CC1=NN(c2ccc(C(=O)O)cc2)C(=O)/C1=C\c1ccc(-c2cc(C)c(C)cc2[N+](=O)[O-])o1` [C646], the “K48 polyubiquitination of wild-type Snail” value (Snail [2]; pFLAG-Snail WT) is reported as “increased”, the “phosphorylation of wild-type Snail” value (Snail [2]; pFLAG-Snail WT) is reported as “increased” and the “phosphorylation and acetylation of K146R Snail” value (Snail [2]; pFLAG-SnailK146R) is reported as “did not affect”.
`O=C(O)CN(CC(=O)O)c1ccccc1OCCOc1ccccc1N(CC(=O)O)CC(=O)O` [BAPTA] was tested, and the Snail expression levels (Snail [1]; HBEC-KL cell line) was “reduced” and the AMPK phosphorylation (phospho-AMPK T172) was “reduced”.
For `COc1ccc(-c2ccccc2)cc1NS(=O)(=O)c1cc(Cl)cc(Cl)c1O` [BMS303141], the Snail (Snail [1]; HBEC-KL) was “reduced”, the Matrigel invasion (HBEC-KL cell line) was “reduced” and the “total degree of metastasis” value (A549-luc cells) was “reduced”.
